Measured values taken from US9096565B2, “Inhibitors of histone deacetylase” (MethylGene Inc., priority 2007, dated 2015).

target: one or more of HDAC-4, HDAC-5, HDAC-6, HDAC-7, HDAC-8, HDAC-9, HDAC-10 and HDAC-11; test: Inhibition of histone deacetylase enzymatic activity (summary statement over isoforms); assay type: biochemical; settings: Table 3, selected examples; HDAC isoform not given
In short: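 HDAC enzyme mix with compound was preincubated 5 min at room temperature. Reaction was started at 37 °C with Boc-Lys(trifluoroacetyl)-AMC substrate and run 20-30 min. It was stopped with trypsin (1 mg/mL) plus a known HDAC inhibitor to release the fluorogenic AMC.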

Row | IC50 [nM] | SMILES
1 | 1000 to 15000 | O=C(NO)C(c1ccccc1)c1cccc(OCc2cccc(OC(F)(F)F)c2)c1 (stereo not drawn) [Compound 3-87, N-hydroxy-2-phenyl-2-(3-(3-(trifluoromethoxy)benzyloxy)phenyl)acetamide]
2 | 1000 to 15000 | CN(C)CCOc1cccc(C(C(=O)NO)c2ccccc2)c1 (stereo not drawn) [Compound 3-88, 2-(3-(2-(dimethylamino)ethoxy)phenyl)-N-hydroxy-2-phenylacetamide]
3 | < 1000 | COCCOCCOc1cccc(C(C(=O)NO)c2ccccc2)c1 (stereo not drawn) [Compound 3-89, N-hydroxy-2-(3-(2-(2-methoxyethoxy)ethoxy)phenyl)-2-phenylacetamide]
4 | < 1000 | COCCOCCOc1ccc(C(C(=O)NO)c2ccccc2)cc1 (stereo not drawn) [Compound 3-90, N-hydroxy-2-(4-(2-(2-methoxyethoxy)ethoxy)phenyl)-2-phenylacetamide]
5 | < 1000 | O=C(NO)C(c1ccccc1)n1ccc(-c2ccccc2)c1 (stereo not drawn) [Compound 5-2, N-hydroxy-2-phenyl-2-(3-phenyl-1H-pyrrol-1-yl)acetamide]
6 | < 1000 | O=C(NO)C(c1ccccc1)c1nnc(Cc2c[nH]c3ccccc23)s1 (stereo not drawn) [Compound 5-3, 2-(5-((1H-indol-3-yl)methyl)-1,3,4-thiadiazol-2-yl)-N-hydroxy-2-phenylacetamide]
7 | < 1000 | O=C(NO)C(c1ccccc1)c1nnc(-c2cccs2)s1 (stereo not drawn) [Compound 5-4, N-hydroxy-2-phenyl-2-(5-(thiophen-2-yl)-1,3,4-thiadiazol-2-yl)acetamide]
8 | < 1000 | CN(C)c1ccc(C(C(=O)NO)c2ccc(O)cc2)cc1 (stereo not drawn) [Compound 5-5, 2-(4-(dimethylamino)phenyl)-N-hydroxy-2-(4-hydroxyphenyl)acetamide]
9 | 1000 to 15000 | O=C(NO)C(c1ccccc1)[S+]([O-])c1ccccc1 (stereo not drawn) [Compound 5-6, N-hydroxy-2-phenyl-2-(phenylsulfinyl)acetamide]
10 | < 1000 | O=C(NO)C(c1ccccc1)N1CCN(S(=O)(=O)c2ccccc2)CC1 (stereo not drawn) [Compound 5-8, N-hydroxy-2-phenyl-2-(4-(phenylsulfonyl)piperazin-1-yl)acetamide]
11 | < 1000 | COc1ccc(-c2ccc(C(C(=O)NO)c3ccccc3)cc2)cc1 (stereo not drawn) [Compound 5-9, N-hydroxy-2-(4′-methoxybiphenyl-4-yl)-2-phenylacetamide]
12 | < 1000 | O=C(NO)C(c1ccccc1)c1ccc(-c2ccncc2)cc1 (stereo not drawn) [Compound 5-10, N-hydroxy-2-phenyl-2-(4-(pyridin-4-yl)phenyl)acetamide]
13 | < 1000 | O=C(NO)C(c1ccccc1)N1CCN(c2ncc(-c3ccccc3)cn2)CC1 (stereo not drawn) [Compound 5-11, N-hydroxy-2-phenyl-2-(4-(5-phenylpyrimidin-2-yl)piperazin-1-yl)acetamide]
14 | < 1000 | O=C(NO)C(c1ccccc1)c1ccc(-c2cccnc2)cc1 (stereo not drawn) [Compound 5-12, N-hydroxy-2-phenyl-2-(4-(pyridin-3-yl)phenyl)acetamide]
15 | < 1000 | O=C(NO)C(c1ccccc1)c1ccc(-c2cccc3ccccc23)cc1 (stereo not drawn) [Compound 5-13, N-hydroxy-2-(4-(naphthalen-1-yl)phenyl)-2-phenylacetamide]
16 | 1000 to 15000 | O=C(NO)C(Oc1ccc(-c2ccccc2)cc1)c1ccccc1 (stereo not drawn) [Compound 5-14, 2-(biphenyl-4-yloxy)-N-hydroxy-2-phenylacetamide]
17 | < 1000 | O=C(NO)C(c1ccccc1)c1cccnc1 (stereo not drawn) [Compound 5-15, N-hydroxy-2-phenyl-2-(pyridin-3-yl)acetamide]
18 | 1000 to 15000 | O=C(NO)C(c1ccccc1)N1CCc2[nH]c3ccc(F)cc3c2C1 (stereo not drawn) [Compound 5-16, 2-(8-fluoro-3,4-dihydro-1H-pyrido[4,3-b]indol-2(5H)-yl)-N-hydroxy-2-phenylacetamide]
19 | < 1000 | O=C(NO)C(c1ccccc1)N1CCC(c2noc3ccc(F)cc23)CC1 (stereo not drawn) [Compound 5-18, 2-(4-(5-fluorobenzo[d]isoxazol-3-yl)piperidin-1-yl)-N-hydroxy-2-phenylacetamide]
20 | 1000 to 15000 | O=C(NO)C(c1ccccc1)c1nnc(-c2ccccc2)s1 (stereo not drawn) [Compound 5-19, N-hydroxy-2-phenyl-2-(5-phenyl-1,3,4-thiadiazol-2-yl)acetamide]
21 | < 1000 | O=C(NO)C(c1ccccc1)N1CCN(C2=Nc3ccccc3Oc3ccc(Cl)cc32)CC1 (stereo not drawn) [Compound 5-20, (E)-2-(4-(2-chlorodibenzo[b,f][1,4]oxazepin-11-yl)piperazin-1-yl)-N-hydroxy-2-phenylacetamide]
22 | < 1000 | CN(C)c1ccc(-c2ccc(C(C(=O)NO)c3ccccc3)cc2)cc1 (stereo not drawn) [Compound 5-21, 2-(4′-(dimethylamino)biphenyl-4-yl)-N-hydroxy-2-phenylacetamide]
23 | < 1000 | O=C(NO)C(c1ccccc1)c1ccc(N2CCOCC2)cc1 (stereo not drawn) [Compound 5-22, N-hydroxy-2-(4-morpholinophenyl)-2-phenylacetamide]

Row | IC50 [nM] | SMILES
24 | < 1000 | O=C(NO)C(c1ccccc1)c1ccc(-c2cncnc2)cc1 (stereo not drawn) [Compound 5-23, N-hydroxy-2-phenyl-2-(4-(pyrimidin-5-yl)phenyl)acetamide]
25 | < 1000 | COc1ccc(C2CCN(C(C(=O)NO)c3ccccc3)CC2)cc1 (stereo not drawn) [Compound 5-24, N-hydroxy-2-(4-(4-methoxyphenyl)piperidin-1-yl)-2-phenylacetamide]
26 | < 1000 | O=C(NO)C(c1ccccc1)c1ccc(N2CCN(c3ccccc3)CC2)cc1 (stereo not drawn) [Compound 5-26, N-hydroxy-2-phenyl-2-(4-(4-phenylpiperazin-1-yl)phenyl)acetamide]
27 | < 1000 | O=C(NO)C(Sc1ccc2ccccc2c1)c1ccccc1 (stereo not drawn) [Compound 5-28, N-hydroxy-2-(naphthalen-2-ylthio)-2-phenylacetamide]
28 | < 1000 | O=C(NO)C(c1ccccc1)c1cccc(-c2ccccc2)c1 (stereo not drawn) [Compound 5-29, 2-(biphenyl-3-yl)-N-hydroxy-2-phenylacetamide]
29 | < 1000 | O=C(NO)C(c1ccccc1)c1cccc(-c2ccncc2)c1 (stereo not drawn) [Compound 5-30, N-hydroxy-2-phenyl-2-(3-(pyridin-4-yl)phenyl)acetamide]
30 | 1000 to 15000 | O=C(NO)C1c2ccccc2CCc2ccccc21 [Compound 5-31]
31 | 1000 to 15000 | CN(C)c1ccc(C(C(=O)NO)c2ccccc2)c2ccccc12 (stereo not drawn) [Compound 5-32, 2-(4-(dimethylamino)naphthalen-1-yl)-N-hydroxy-2-phenylacetamide]
32 | < 1000 | O=C(NO)C(c1ccccc1)c1ccc(OCc2ccccc2)cc1 (stereo not drawn) [Compound 5-33, 2-(4-(benzyloxy)phenyl)-N-hydroxy-2-phenylacetamide]
33 | < 1000 | O=C(NO)C(c1ccccc1)c1ccc(-c2ccc(N3CCOCC3)cc2)cc1 (stereo not drawn) [Compound 5-34, N-hydroxy-2-(4′-morpholinobiphenyl-4-yl)-2-phenylacetamide]
34 | < 1000 | O=C(NO)C(c1ccccc1)N1CCC(c2nc3ccccc3o2)CC1 (stereo not drawn) [Compound 5-35, 2-(4-(benzo[d]oxazol-2-yl)piperidin-1-yl)-N-hydroxy-2-phenylacetamide]
35 | < 1000 | O=C(NO)C(c1ccccc1)c1ccc(O)cc1 (stereo not drawn) [Compound 5-36, N-hydroxy-2-(4-hydroxyphenyl)-2-phenylacetamide]
36 | < 1000 | O=C(NO)C(c1ccccc1)c1nnc(-c2ccc(C(F)(F)F)cc2)s1 (stereo not drawn) [Compound 5-37, N-hydroxy-2-phenyl-2-(5-(4-(trifluoromethyl)phenyl)-1,3,4-thiadiazol-2-yl)acetamide]
37 | < 1000 | O=C(NO)C(c1ccccc1)c1nnc(-c2ccc3c(c2)OCO3)s1 (stereo not drawn) [Compound 5-38, 2-(5-(benzo[d][1,3]dioxol-5-yl)-1,3,4-thiadiazol-2-yl)-N-hydroxy-2-phenylacetamide]
38 | 1000 to 15000 | O=C(NO)C(c1ccccc1)c1nnc(-c2ccccc2-c2ccccc2)s1 (stereo not drawn) [Compound 5-39, 2-(5-(biphenyl-2-yl)-1,3,4-thiadiazol-2-yl)-N-hydroxy-2-phenylacetamide]
39 | < 1000 | O=C(NO)C(c1ccccc1)c1ccc(OCCN2CCOCC2)cc1 (stereo not drawn) [Compound 5-40, N-hydroxy-2-(4-(2-morpholinoethoxy)phenyl)-2-phenylacetamide]
40 | < 1000 | O=C(NO)C(c1ccccc1)c1ccc(-c2ccc3[nH]ccc3c2)cc1 (stereo not drawn) [Compound 5-41, 2-(4-(1H-indol-5-yl)phenyl)-N-hydroxy-2-phenylacetamide]
41 | 1000 to 15000 | O=C(NO)C(c1ccccc1)N1CCN(C(=O)c2ccccc2)CC1 (stereo not drawn) [Compound 5-42, 2-(4-benzoylpiperazin-1-yl)-N-hydroxy-2-phenylacetamide]
42 | < 1000 | O=C(NO)C(c1ccccc1)N1CCN(c2ccc(C(F)(F)F)cc2)CC1 (stereo not drawn) [Compound 5-43, N-hydroxy-2-phenyl-2-(4-(4-(trifluoromethyl)phenyl)piperazin-1-yl)acetamide]
43 | < 1000 | CCN(Cc1ccccc1)c1ccc(C(C(=O)NO)c2ccccc2)cc1 (stereo not drawn) [Compound 5-44, 2-(4-(benzyl(ethyl)amino)phenyl)-N-hydroxy-2-phenylacetamide]
44 | < 1000 | Cc1cc(-c2ccc(C(C(=O)NO)c3ccccc3)cc2)ccc1F (stereo not drawn) [Compound 5-45, 2-(4′-fluoro-3′-methylbiphenyl-4-yl)-N-hydroxy-2-phenylacetamide]
45 | < 1000 | O=C(NO)C(Sc1nc2cccnc2s1)c1ccccc1 (stereo not drawn) [Compound 5-46, N-hydroxy-2-phenyl-2-(thiazolo[5,4-b]pyridin-2-ylthio)acetamide]

Row | SMILES | IC50 [nM]
46 | O=C(NO)C(c1ccccc1)N1CCC(O)(c2ccccc2)CC1 (stereo not drawn) [Compound 5-1, N-hydroxy-2-(4-hydroxy-4-phenylpiperidin-1-yl)-2-phenylacetamide] | < 1000
47 | O=C(NO)C(c1ccccc1)N1CC=C(c2c[nH]c3ccccc23)CC1 (stereo not drawn) [Compound 5-7, 2-(4-(1H-indol-3-yl)-5,6-dihydropyridin-1(2H)-yl)-N-hydroxy-2-phenylacetamide] | < 1000
48 | O=C(NO)C(c1ccccc1)N1CCC(c2cn(Cc3ccccc3)c3ccccc23)CC1 (stereo not drawn) [Compound 5-17, 2-(4-(1-benzyl-1H-indol-3-yl)piperidin-1-yl)-N-hydroxy-2-phenylacetamide] | < 1000
